Data published in patent US8236833B2, “Biphenyl derivatives as modulators of voltage gated ion channels” (Vertex Pharmaceuticals Incorporated, priority 2005, dated 2012).
Where two headings read alike, the source gives them in different places.

What was measured:
[1] = test system: voltage-gated sodium ion channels; experiment: Assays for detecting and measuring NaV inhibition properties of compounds (Table 3 activity data; the specific assay and subtype are not stated); type: cell-based
neuropathic pain = settings: in vivo; cited from earlier work
NaV1.3 = NaV1.3 (Homo sapiens, UniProt Q9NY46); settings: read-out: TTX IC50; cited from earlier work
NaV1.8 = NaV1.8 (Homo sapiens, UniProt Q9Y5Y9); settings: read-out: TTX IC50; cited from earlier work
NaV1.6 = NaV1.6 (Homo sapiens, UniProt Q9UQD0); settings: read-out: TTX IC50; cited from earlier work
NaV1.9 = NaV1.9 (Homo sapiens, UniProt Q9UI33); settings: read-out: TTX IC50; cited from earlier work
NaV1.1 = NaV1.1 (Homo sapiens, UniProt P35498); settings: read-out: TTX IC50; cited from earlier work
[2] = activity data for selected compounds, NaV subtype not stated, read-out: IC50

Chain of NaV1.8 (Q9Y5Y9 whole entry, looked up): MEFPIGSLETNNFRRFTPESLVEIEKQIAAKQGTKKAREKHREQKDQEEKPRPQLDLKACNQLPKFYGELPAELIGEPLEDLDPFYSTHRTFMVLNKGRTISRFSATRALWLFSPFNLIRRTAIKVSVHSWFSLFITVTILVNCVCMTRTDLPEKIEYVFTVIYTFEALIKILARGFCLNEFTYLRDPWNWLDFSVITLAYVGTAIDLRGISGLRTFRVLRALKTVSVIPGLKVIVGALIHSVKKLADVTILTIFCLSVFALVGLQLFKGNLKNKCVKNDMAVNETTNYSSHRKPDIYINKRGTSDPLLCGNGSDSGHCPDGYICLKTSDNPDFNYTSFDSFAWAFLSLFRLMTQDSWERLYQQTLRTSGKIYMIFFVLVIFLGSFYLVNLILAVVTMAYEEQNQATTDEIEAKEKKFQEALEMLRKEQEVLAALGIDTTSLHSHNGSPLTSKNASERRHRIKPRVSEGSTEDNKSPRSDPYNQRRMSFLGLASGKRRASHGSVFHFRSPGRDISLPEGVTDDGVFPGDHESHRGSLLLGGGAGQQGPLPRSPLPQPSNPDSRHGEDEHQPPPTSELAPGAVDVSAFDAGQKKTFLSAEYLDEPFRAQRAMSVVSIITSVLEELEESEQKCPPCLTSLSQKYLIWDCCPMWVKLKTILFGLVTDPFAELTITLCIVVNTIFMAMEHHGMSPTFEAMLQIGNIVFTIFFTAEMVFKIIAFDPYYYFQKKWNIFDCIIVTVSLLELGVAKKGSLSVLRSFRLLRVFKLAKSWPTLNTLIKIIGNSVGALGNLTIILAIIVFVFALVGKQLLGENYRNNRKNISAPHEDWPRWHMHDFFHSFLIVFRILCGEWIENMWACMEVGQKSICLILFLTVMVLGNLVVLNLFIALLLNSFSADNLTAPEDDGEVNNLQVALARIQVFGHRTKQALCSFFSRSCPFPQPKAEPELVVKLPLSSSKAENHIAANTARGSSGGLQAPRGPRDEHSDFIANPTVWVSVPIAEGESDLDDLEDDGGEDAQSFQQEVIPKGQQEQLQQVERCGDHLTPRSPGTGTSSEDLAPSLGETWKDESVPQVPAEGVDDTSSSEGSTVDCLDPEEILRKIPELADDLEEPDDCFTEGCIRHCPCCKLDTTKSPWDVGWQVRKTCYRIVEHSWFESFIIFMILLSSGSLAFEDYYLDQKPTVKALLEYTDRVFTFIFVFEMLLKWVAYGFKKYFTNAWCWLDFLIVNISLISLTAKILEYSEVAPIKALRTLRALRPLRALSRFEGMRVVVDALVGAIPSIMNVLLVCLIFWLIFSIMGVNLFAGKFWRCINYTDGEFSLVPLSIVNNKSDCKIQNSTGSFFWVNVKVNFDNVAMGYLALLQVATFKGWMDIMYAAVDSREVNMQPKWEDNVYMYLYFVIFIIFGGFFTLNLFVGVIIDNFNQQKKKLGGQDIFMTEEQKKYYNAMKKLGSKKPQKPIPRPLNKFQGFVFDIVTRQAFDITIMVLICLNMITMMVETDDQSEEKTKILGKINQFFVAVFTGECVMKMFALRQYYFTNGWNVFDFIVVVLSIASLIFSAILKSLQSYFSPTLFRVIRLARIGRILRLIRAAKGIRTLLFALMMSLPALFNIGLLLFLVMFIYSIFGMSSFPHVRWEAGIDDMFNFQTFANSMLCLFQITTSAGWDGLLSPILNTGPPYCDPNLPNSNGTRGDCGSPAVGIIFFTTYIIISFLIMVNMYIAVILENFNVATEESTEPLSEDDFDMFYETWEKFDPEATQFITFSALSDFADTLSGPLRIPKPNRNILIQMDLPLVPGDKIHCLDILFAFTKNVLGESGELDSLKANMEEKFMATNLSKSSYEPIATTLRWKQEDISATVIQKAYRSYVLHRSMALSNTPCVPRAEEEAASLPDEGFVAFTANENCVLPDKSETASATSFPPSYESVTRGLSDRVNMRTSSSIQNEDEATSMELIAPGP
Chain of NaV1.3 (Q9NY46 whole entry, looked up): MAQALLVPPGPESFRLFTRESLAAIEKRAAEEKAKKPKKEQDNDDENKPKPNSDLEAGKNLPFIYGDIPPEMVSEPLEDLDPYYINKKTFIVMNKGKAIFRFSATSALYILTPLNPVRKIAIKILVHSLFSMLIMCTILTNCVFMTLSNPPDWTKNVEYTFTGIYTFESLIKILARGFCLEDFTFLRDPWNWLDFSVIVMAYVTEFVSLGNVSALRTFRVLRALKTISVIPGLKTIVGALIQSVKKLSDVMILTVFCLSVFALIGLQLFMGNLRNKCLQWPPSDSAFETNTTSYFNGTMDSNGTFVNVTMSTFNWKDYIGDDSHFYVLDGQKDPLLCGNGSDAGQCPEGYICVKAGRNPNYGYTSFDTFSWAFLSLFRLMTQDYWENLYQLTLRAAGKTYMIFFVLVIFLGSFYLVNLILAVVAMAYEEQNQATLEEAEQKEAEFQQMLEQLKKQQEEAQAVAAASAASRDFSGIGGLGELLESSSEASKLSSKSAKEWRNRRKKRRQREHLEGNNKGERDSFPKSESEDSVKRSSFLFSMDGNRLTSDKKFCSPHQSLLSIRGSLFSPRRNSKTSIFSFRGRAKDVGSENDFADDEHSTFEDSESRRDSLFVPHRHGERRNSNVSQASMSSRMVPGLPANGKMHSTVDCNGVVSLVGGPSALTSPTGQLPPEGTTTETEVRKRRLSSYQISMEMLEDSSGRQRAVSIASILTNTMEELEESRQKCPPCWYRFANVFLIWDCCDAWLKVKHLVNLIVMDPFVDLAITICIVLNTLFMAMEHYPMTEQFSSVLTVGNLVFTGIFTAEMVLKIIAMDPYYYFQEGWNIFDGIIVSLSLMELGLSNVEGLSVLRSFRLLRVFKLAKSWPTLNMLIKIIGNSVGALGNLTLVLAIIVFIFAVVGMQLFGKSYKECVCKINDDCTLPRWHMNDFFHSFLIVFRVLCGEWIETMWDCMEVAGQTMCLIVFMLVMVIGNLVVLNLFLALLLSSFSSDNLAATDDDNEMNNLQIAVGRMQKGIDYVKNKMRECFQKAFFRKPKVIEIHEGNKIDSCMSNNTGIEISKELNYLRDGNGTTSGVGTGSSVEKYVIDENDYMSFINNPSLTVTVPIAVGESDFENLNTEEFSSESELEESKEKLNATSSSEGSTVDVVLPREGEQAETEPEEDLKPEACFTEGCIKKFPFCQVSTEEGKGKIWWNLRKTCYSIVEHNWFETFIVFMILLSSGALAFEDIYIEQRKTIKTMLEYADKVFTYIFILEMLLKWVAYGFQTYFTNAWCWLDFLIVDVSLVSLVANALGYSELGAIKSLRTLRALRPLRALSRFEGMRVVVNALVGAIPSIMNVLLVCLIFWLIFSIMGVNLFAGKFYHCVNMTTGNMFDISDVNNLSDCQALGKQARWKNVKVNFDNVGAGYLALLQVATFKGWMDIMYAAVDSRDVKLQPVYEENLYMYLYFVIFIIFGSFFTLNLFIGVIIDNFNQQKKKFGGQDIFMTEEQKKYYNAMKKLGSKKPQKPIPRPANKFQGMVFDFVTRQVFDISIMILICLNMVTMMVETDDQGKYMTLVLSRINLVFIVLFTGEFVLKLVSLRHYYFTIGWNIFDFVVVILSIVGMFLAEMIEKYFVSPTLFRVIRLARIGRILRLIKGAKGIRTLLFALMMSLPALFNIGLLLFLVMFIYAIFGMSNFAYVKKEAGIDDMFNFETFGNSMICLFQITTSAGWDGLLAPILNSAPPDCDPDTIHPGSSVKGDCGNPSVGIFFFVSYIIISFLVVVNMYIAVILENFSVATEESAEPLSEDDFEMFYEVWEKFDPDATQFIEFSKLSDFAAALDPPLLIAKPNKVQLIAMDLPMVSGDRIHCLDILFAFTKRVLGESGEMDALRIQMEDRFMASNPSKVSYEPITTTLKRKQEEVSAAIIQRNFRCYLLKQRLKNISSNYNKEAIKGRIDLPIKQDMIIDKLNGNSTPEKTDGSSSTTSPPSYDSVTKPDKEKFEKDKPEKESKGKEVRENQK

Work on O=C(COc1ccc(Cl)cc1)Nc1ccc(-c2ccc(S(=O)(=O)Nc3nccs3)cc2)cc1 [Compound 1] yielded an IC50 [1, 2] of 1000 to 5000 nM.
With COc1cccc(CC(=O)Nc2ccc(-c3ccc(S(=O)(=O)Nc4nccs4)cc3)cc2)c1 [Compound 2] the IC50 [1] was > 5000 nM.
O=C(Nc1ccc(-c2ccc(S(=O)(=O)Nc3nccs3)cc2)cc1)c1ccccc1F [Compound 3] gave an IC50 [1] of 1000 to 5000 nM.
For O=C(COc1ccnc2c(C(F)(F)F)cccc12)Nc1ccc(-c2ccc(S(=O)(=O)Nc3nccs3)cc2)cc1 [Compound 4, N-[4′-(Thiazol-2-ylsulfamoyl)-biphenyl-4-yl]-2-(8-trifluoromethyl-quinolin-4-yloxy)-acetamide], the IC50 [1, 2] was > 5000 nM.
Work on O=C(COc1cccc(Cl)c1)Nc1ccc(-c2ccc(S(=O)(=O)Nc3nccs3)cc2)cc1 [Compound 5, 2-(3-Chloro-phenoxy)-N-[4′-(thiazol-2-ylsulfamoyl)-biphenyl-4-yl]-acetamide] yielded an IC50 [1, 2] of 1000 to 5000 nM.
For C[C@@H](C(=O)Nc1ccc(-c2ccc(S(=O)(=O)Nc3nccs3)cc2)cc1)n1ccc2c(F)cccc21 [Compound 6, (S)-2-(4-Fluoro-indol-1-yl)-N-[4′-(thiazol-2-ylsulfamoyl)-biphenyl-4-yl]-propionamide], the IC50 [1, 2] was < 1000 nM.
In the case of NCC1(CC(=O)O)CCCCC1 [Gabapentin], the “share of patients in which it works” value (neuropathic pain) is given as 60%.
For NC1=N[C@H](O)[C@H]2[C@H]3O[C@]4(O)O[C@@H]([C@@H](O)[C@@]2(N1)[C@@H]4O)[C@]3(O)CO [TTX, tetrodotoxin], the IC50 (NaV1.3) is given as 15 nM, the IC50 (NaV1.8) is given as > 50000 nM and the IC50 (NaV1.6) is given as 6 nM. For the same compound, the IC50 (NaV1.9) was 1000 nM and the IC50 (NaV1.1) was 10 nM.
